Values of other authors, collected in US20220331292A1, “COMPOSITIONS AND METHODS FOR DELIVERY OF PSILOCIN AND PRODRUGS THEREOF” (priority 2021, published 2022).

Tests used:
[1] = biological target: 5-HT2a serotonin receptor (Homo sapiens, UniProt P28223)
[2] = not given; remark: listed apart in the source
[3] = psilocin after escalating doses of psilocybin

Sequence of 5-HT2a serotonin receptor (P28223 whole entry): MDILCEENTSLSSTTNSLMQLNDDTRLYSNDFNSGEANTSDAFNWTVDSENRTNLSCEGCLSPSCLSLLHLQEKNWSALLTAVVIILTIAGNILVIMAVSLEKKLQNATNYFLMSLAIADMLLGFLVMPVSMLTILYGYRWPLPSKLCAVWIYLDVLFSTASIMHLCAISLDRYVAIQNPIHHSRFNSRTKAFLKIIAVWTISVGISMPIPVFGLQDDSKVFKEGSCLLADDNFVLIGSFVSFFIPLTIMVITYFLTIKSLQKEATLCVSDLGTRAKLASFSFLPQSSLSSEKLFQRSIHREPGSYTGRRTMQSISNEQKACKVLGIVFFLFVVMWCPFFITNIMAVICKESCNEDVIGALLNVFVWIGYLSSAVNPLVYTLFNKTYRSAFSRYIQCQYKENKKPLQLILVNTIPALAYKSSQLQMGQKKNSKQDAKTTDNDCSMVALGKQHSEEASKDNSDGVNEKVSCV

Row | Compound | binding affinity with 5-HT2a [1] | half-life [3] | pharmacokinetics (linearity) [3] | share of metabolized psilocybin excreted in the urine as psilocin-O-glucuronide [2] | serious physical or psychological events (oral 0.3, 0.45 and 0.6 mg/kg at monthly intervals, during or within 30 days of any dose)
1 | CN(C)CCc1c[nH]c2cccc(O)c12 [Psilocin, psilocin] | high binding affinity | three | linear |  | 
2 | CN(C)CCc1c[nH]c2cccc(OP(=O)(O)O)c12 [Psilocybin, psilocybin] |  |  |  | About 80% | no serious physical or psychological events
